SMILES | melting point [°C]
COc1ncccc1Nc1c(NC(NC(=O)c2cc(F)cc(F)c2)C(C)(C)C)c(=O)c1=O (stereo not drawn) [Example 82, 3,5-Difluoro-N-[1-({2-[(2-methoxypyridin-3-yl)amino]-3,4-dioxo-1-cyclobuten-1-yl}amino)-2,2-dimethylpropyl]benzamide] | 221 to 223
CC(C)(C)C(NC(=O)c1cc(F)cc(F)c1)Nc1c(Nc2cccnc2Cl)c(=O)c1=O (stereo not drawn) [Example 110A, N-(1-{[3,4-Dioxo-2-(2-chloro3-pyridinylamino)-1-cyclobuten-1-yl]amino}-2,2-dimethylpropyl)-3,5-difluorobenzamide] | 215 to 217
CC(C)(C)C(NC(=O)c1ccc(I)cc1)NS(=O)(=O)Nc1cccnc1 (stereo not drawn) [Example 34, N-(2,2-Dimethyl-1-{[(3-pyridinylamino)sulfonyl]amino}propyl)-4-iodobenzamide] | 177 to 178

From US6495576B2, “Aminal diones as potassium channel openers” (Abbott Laboratories, priority 2001, dated 2002)
